From US20240180093A1, “GENETIC MARKERS AND SOYBEAN PLANTS WITH INCREASED TOLERANCE TO DICAMBA” (THE CURATORS OF THE UNIVERSITY OF MISSOURI, priority 2022, published 2024)
Like-named read-outs stand apart in the source and are kept apart here.

Tests used:
[1] = tested on: soybean accessions; details: for Mean off-target dicamba damage score: 1 to 5 scale
Description: A total of 382 genetically diverse soybean accessions with maturity groups (MG) ranging from MG 3 to 5 were used in this study. These comprise a subset of the USDA Soybean Germplasm Collection and originated from […], including Algeria (2), China (226), Costa Rica (1), Georgia (2), Indonesia (1), Japan (38), Nepal (1), North Korea (20), Russia (5), South Africa (1), South Korea (32), Taiwan (3), United States (40), and Vietnam (5). Five accessions have unknown origins. The USDA Soybean Germplasm Collection was genotyped with the SoySNP50K BeadChip.
Field trials were conducted in three environments for two years (2020-2021) using a two-replicate randomized complete block design in Portageville, MO (36°23′44.2″N lat; 89°36′52.3″W long) and Clarkton, MO (36°29′14.8″N lat; 89°57′39.0″W long). Each plot consisted of a single 2.13 m long row spaced 0.76 m apart.
Each year, genotypes were visually assessed for off-target dicamba damage once in the early reproductive stage between R1 to R3 (approximately […]). Lines were rated on a 1 to 5 scale with 0.5 increments.
Adjusted means across environments were calculated using the function ‘ls_means’ of the R package ‘lmerTest’ (available at https://www.r-project.org/) based on a mixed-effects linear model conducted with the package ‘lme4’. The model included the fixed effect of genotype, the random interaction between genotype and environment (G×E), the random effect of environment, and the nested random effect of replication within the environment. To measure the consistency and inter-relatedness of the damage ratings across environments, Cronbach's alpha (α) score was calculated each year using the R package ‘psych’ (Revelle, 2021) based on Eq. 1.

[2] = cited from earlier work

COc1c(Cl)ccc(Cl)c1C(=O)O [dicamba, 3,6-dichloro-2-methoxybenzoic acid]
Mean off-target dicamba damage score ([1]; environment 2020-Clarkton): 2.70 | Mean off-target dicamba damage score ([1]; environment 2021-Clarkton): 2.80 | Mean off-target dicamba damage score ([1]; environment 2021-LeeFarm): 2.60 | Mean off-target dicamba damage score ([1]; overall, three environments 2020-2021, 382 accessions): 2.70 | average damage ([1]; accession PI 88788): 3.5 | average damage ([1]; accession PI 342434 (Japan)): 1.5 | average damage ([1]; accession PI 424005 (South Korea)): 1.2 | average damage ([1]; accession PI 424038-B (South Korea)): 1.3 | average damage ([1]; accession PI 547862 (L83-570, United States)): 4.1 | average damage ([1]; accession PI 552538 (Dunbar, United States)): 4.2 | average damage ([1]; accession PI 561701 (G88-20092, United States)): 1.4 | average damage ([1]; accession PI 597387 (Pana, United States)): 4.5 | average damage ([1]; accession PI 598124 (Maverick, United States)): 4.3 | average damage ([1]; accession PI 603497 (China)): 1.4 | average damage ([1]; accession PI 603675 (China)): 4.5 | average damage ([1]; accessions derived from Asia): 2.6 | average damage ([1]; accessions derived from the Americas): 3.0 | average damage ([1]; accessions from China): 2.7 | average damage ([1]; accessions from Costa Rica): 3.1 | average damage ([1]; accessions from Japan): 2.6 | average damage ([1]; accessions from South Korea): 2.5 | average damage ([1]; accessions from the United States): 2.3 | average damage ([1]; accessions of maturity group MG 3): 2.8 | average damage ([1]; accessions of maturity group MG 4): 2.7 | average damage ([1]; accessions of maturity group MG 5): 2.5 | mean score of dicamba damage ([1]; genotypes carrying all three favorable alleles (ss715605561, ss715635349, ss715632413)): 1.58 | mean score of dicamba damage ([1]; genotypes carrying all three unfavorable alleles (ss715605561, ss715635349, ss715632413)): 2.90

O=C(O)CNCP(=O)(O)O [glyphosate, N-(phosphonomethyl)glycine]
water solubility [2]: high water solubility
